Reference: patent US20220008401A1, “COMPOSITIONS AND METHODS FOR TREATING PULMONARY DISEASE WITH MATRIX METALLOPROTEINASE INHIBITORS” (DARSHA LLC, priority 2019, published 2022)

Legend:
neutrophils (PMN) [1] = test: BALF cell counts (cytospin, DifQuik), LPS-injured mice, single inhaled dose; type: in vivo; conditions: 1 hour following treatment
Procedure: Since substantial literature indicates neutrophils (PMN) are critical mediators of inflammatory damage in injured lung, we next assessed if inhaled Compound 1 attenuated PMN infiltration of LPS injured lungs. To achieve this, mice were injured with LPS and 24 h later received a single inhaled dose of Compound 1 and were sacrificed 1 hour after dosing. PMN infiltration was assessed by examining lung sections (qualitatively) and BALF (quantitatively) from Compound 1 treated and untreated mice. Quantitative examination was performed on BALF samples that were collected from each animal and subsequently subjected to cytospin centrifugation and DifQuik staining. The fraction of PMN present in each sample may be quantified by counting 300 cells of the inflammatory cell population across three different microscopic images. The obtained fraction may then be multiplied by the total cell count to estimate the number of PMNs present in the BALF.

[2] = Lung homogenate levels after nebulized Compound 1, Example 5 (mass spectroscopy); type: in vivo, C57/BL6 mice; conditions: for Compound 1 levels in the lung: nebulized, dose groups pooled, lung homogenate, n=6
Procedure: In this test, C57/BL6 mice were divided into three treatment groups, where they received nebulized Compound 1 at high dose (10 mg/kg), medium dose (5 mg/kg) and, low dose (2 mg/kg). Animals were sacrificed at 1, 3 and, 5 hours (n=3 mice per time point) followed by collection of lung homogenates. Homogenates were analyzed by mass spectroscopy to determine Compound 1 levels in the lung.

neutrophils (PMN) [3] = test: Myeloperoxidase staining of lung sections, LPS-injured mice, single inhaled dose; type: in vivo; conditions: LPS treated mice
Procedure: Since substantial literature indicates neutrophils (PMN) are critical mediators of inflammatory damage in injured lung, we next assessed if inhaled Compound 1 attenuated PMN infiltration of LPS injured lungs. To achieve this, mice were injured with LPS and 24 h later received a single inhaled dose of Compound 1 and were sacrificed 1 hour after dosing. PMN infiltration was assessed by examining lung sections (qualitatively) and BALF (quantitatively) from Compound 1 treated and untreated mice. To assess the effects of Compound 1 on PMN in situ, paraffin embedded lung sections (prepared as described previously) were stained for myeloperoxidase, a PMN marker.

LPS injured mice = test: Pulmonary wet to dry ratio (edema), LPS-injured mice, single inhaled dose; type: in vivo, C57BL/6J mice; conditions: LPS 1.5 mg/kg; 24 hours later single aerosolized dose 35 mg/kg; right middle lobe; n=3/group (control 4.1, LPS 12.9)
Procedure: We next determined if inhaled Compound 1 attenuated specific features of acute inflammatory lung injury that were also observed in response to LPS. Again, 12-week-old male C57BL/6J mice were intranasally instilled with LPS (1.5 mg/kg of 1 mg/ml solution in sterile PBS). 24 hours later, these mice received a single dose of aerosolized MMP inhibitor (Compound 1, dissolved in PBS, 35 mg/kg) or PBS alone and a tail vein injection of FITC labeled albumin (FITC-albumin). One hour following nebulization, the mice were sacrificed. The left lung was fixed in formalin from each animal, paraffin embedded, sectioned and stained with H&E to examine histological features indicative of lung injury. These were achieved by visually scoring each slide based on a lung injury scoring system developed by the American Thoracic Society for animal models of inflammatory lung injury.
Edema was also assessed by determination of pulmonary wet to dry ratios. At the time of sacrifice the right middle lobe was removed from each animal and promptly weighed to obtain the wet weight. Thereafter, the lung tissue was dried in an oven at 65° C. for 72 hours and then weighed to obtain the dry weight.

caspase 3/7 = test: Caspase 3/7 activity assay on lung homogenate of LPS-injured mice; type: in vivo; conditions: LPS-CGS group, four inhaled doses q6h starting 24 hours after LPS, n≥4 (LPS-PBS 0.81±1.15)
Procedure: It was also examined if Compound 1 would reduce the levels of apoptosis associated with injury by LPS. Because the time line of apoptosis takes hours, an additional set of mice were injured with LPS (1.5 mg/kg of 1 mg/ml solution in sterile PBS) followed by initiation of treatment with Compound 1 twenty four hours later. The mice received four doses of Compound 1 (one dose every six hours over a total duration of 24 hours in accordance with the treatment schedule described below with reference to FIG. 8B). The mice were sacrificed and their lungs were harvested and assessed for caspase 3 activity by western blot for cleaved caspase 3 and a caspase 3/7 activity assay obtained from ThermoFisher.
FIG. 5B is the relative densitometric quantification of western blots for cleaved caspase 3: whole caspase ratio. […] FIG. 5C depicts the results of the caspase 3/7 activity assay performed on mouse lung homogenate. […] The increase in caspase 3/7 activity was attenuated by inhaled treatment with Compound 1. FIG. 5D depicts 20× images (570A, 570B, and 570C) of representative sections of lung tissue fluorescently stained for cleaved caspase-3 (red) and cell nuclei (blue) in a control lung tissue (570A), a lung tissue of a mouse treated with LPS only (570B), and lung tissue of a mouse treated with LPS and Compound 1 (570C) (n=3).

neutrophils = test: Neutrophil influx: myeloperoxidase staining and BALF differential cell counts, LPS-injured mice, q6h x 4 doses; type: in vivo
Procedure: Mice were nasally instilled with LPS followed by treatment with CGS every 6 hours for 4 doses. Mice were sacrificed 6 hours after the 4th dose of Compound 1 and lungs and BALF were collected for analysis. Paraffin embedded lung sections ([…]) were stained for myeloperoxidase, a neutrophil marker, followed by detection using DAB, to assess parenchymal neutrophil infiltration.
Differential cell counts were taken from each animal's cytospin with at least 3 separate images counted.

[4] = tested on: mice exposed to cigarette smoke; test: Cigarette smoke exposure model, BALF total cell counts; type: in vivo; conditions: cigarette smoke 10 days; inhaled Compound 1 once a day for last four days; sacrifice 1 hour after final dose
Procedure: In order to determine if the observed effects of Compound 1 were specific to a model of acute lung injury, we exposed mice to cigarette smoke, a more chronic model of lung injury, for 10 days while treating once a day with inhaled Compound 1 for the last four days of smoke exposure. Mice were sacrificed 1 hour following their final dose of Compound 1 on the 10th day. BALF was collected and total cell counts were performed. […] (*p<0.05).

[5] = LPS treated mice, single inhaled dose

## butanamide, N-hydroxy-2-[[(4-hydroxyphenyl)sulfonyl](3-pyridinylmethyl)amino]-3-methyl, hydrochloride, (2R) [Compound 1]
Neutrophils (PMN) [1]; LPS then 24 h later single inhaled dose, n=5/group, p=0.01 (LPS/PBS 5.3×10^6)
  total PMN counts in the BALF: 1.2×10^6 neutrophils/ml
Neutrophils (PMN) [1]; [5]
  macrophage count in the BALF: remained unchanged
  overall cell count in BALF: significant reduction
[2]; 1 h post-inhalation
  Compound 1 levels in the lung: 310.7 ± 85.38 ng/g
[2]; 3 h post-inhalation
  Compound 1 levels in the lung: 49.03 ± 15.54 ng/g
[2]; 5 h post-inhalation
  Compound 1 levels in the lung: 24.48 ± 9.96 ng/g
[2]; high (10 mg/kg), medium (5 mg/kg), low (2 mg/kg) nebulized dose, 1, 3, 5 hours
  effect of dose size on Compound 1 concentration in lung: no significant effect
Neutrophils (PMN) [3]
  PMN infiltration into the lung parenchyma (myeloperoxidase staining): attenuates PMN infiltration into the lung parenchyma
LPS injured mice
  pulmonary wet:dry ratio: 7.3
Caspase 3/7
  caspase 3/7 activity: 0.05 ± 0.16 µM
neutrophils; LPS then every 6 hours for 4 doses, n≥4 (LPS only 8.0e6±5.7e6)
  overall inflammatory cell count in BALF: 8.6e5±3.7e5 cells/mL
neutrophils; LPS then every 6 hours for 4 doses, sacrifice 6 hours after 4th dose
  parenchymal neutrophil infiltration (myeloperoxidase staining): qualitatively reduced parenchymal neutrophil infiltration
neutrophils; LPS-CGS group, every 6 hours for 4 doses, n≥5 (LPS-PBS 8.0e6±5.7e6)
  neutrophil count within the BALF: 2.4e6±1.2e6 cells/ml
[4]
  smoke induced increase in BALF cell counts: failed to attenuate
